According to patent US12286435B2, “Compound having benzo seven-membered ring structure, preparation method therefor, and use thereof” (BIONNA (BEIJING) MEDICAL TECHNOLOGY CO., LTD., priority 2019, dated 2025):
“And” between values parts separate entries of the source, which are not always exact repeats. Equal entries are not always repeated.

Columns and labels:
[1] = molecular target: BRD4 BD1 protein (Homo sapiens (Human), UniProt O60885); assay: Fluorescence polarization binding affinity (Ki) with BRD4 BD1 protein; conditions: fluorescence polarization; Ki calculated from IC50
[2] = molecular target: BRD4 BD2 protein (Homo sapiens (Human), UniProt O60885); assay: Fluorescence polarization binding affinity (Ki) with BRD4 BD2 protein; design: BRD4 BD2 Ki: reference not given here; conditions: fluorescence polarization; Ki calculated from IC50
[3] = tested on: multiple myeloma MM.1S cell line; assay: Cell viability (CCK-8), multiple myeloma MM.1S; assay type: cell-based; conditions: Homo sapiens, MM1.S, 96 h, MM.1S cells, 4 days, CCK-8, 50% inhibition of cell growth
Procedure, shortened: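 Cells (about 3000-5000 per well) exposed to 3-fold serial dilutions of compound for 4 days at 37° C, 5% CO2. CCK-8 added 2-4 h, absorbance at 450 nm, viability normalised to untreated cells after medium-only blank subtraction; IC50 is concentration giving 50% growth inhibition.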

[4] = tested on: breast cancer MDA-MB-231 cell line; assay: Cell viability (CCK-8), breast cancer MDA-MB-231; assay type: cell-based; conditions: Homo sapiens, 96 h; MDA-MB-231 cells, 4 days, CCK-8, 50% inhibition of cell growth
Description: (§1) 3. Determination of cell viability of the compound
(§2) The sample to be tested was dissolved with 100% dimethyl sulfoxide to prepare a 20 mM stock solution of the compound, which was diluted with 100% dimethyl sulfoxide to the highest compound concentration required for the experiment (2.5 mM).
(§3) First, 145 uL of a complete cell culture medium was added to wells B1-G1 of a 96-well flat-bottomed tansparent cell culture plate, and 100 uL of the complete medium was added to wells B2-G12, respectively. Then, 5 uL of the 2.5 mM solution of the compound was added to wells B1-D1 and E1-G1 respectively, and then diluted gradiently by 3-folds to B12-D12 and E12-G12 in sequence. Finally, 50 uL of the solution of the cells to be tested was added to each well, with about 3000-5000 cells per well, and a total volume of 150 uL per well.
(§4) In the experiment, in addition to the tested compound, two other control groups were set up: 1) a control group adding the cells and the complete medium, but without adding the compound; 2) a control group adding the complete medium only, without adding the cells and the compound. The 96-well plate was placed in a 37° C. cell culture incubator containing 5% carbon dioxide for 4 days, added with 15 uL of a CCK-8 reagent per well, and then incubated at 37° C. for 2-4 hours. The 96-well plate was read on a TECAN microplate reader, and the absorbance value at 450 nm wavelength was taken.
(§5) The effect of different concentrations of the compound on cell viability was calculated by the following equation: [absorption value of the experimental group−absorption value of pure cell culture medium without the cells or the compound]/[absorption value of the control group with the tumor cells but no testing compound−absorption value of pure cell culture medium without the cell or the compound]×100%.
(§6) The above data were precessed by software, and the IC50 value was the concentration of the compound corresponding to the 50% inhibition rate of cell growth.
(§7) Based on the above test method of the compound on cell viability, a variety of […] cancer cell lines were tested, using multiple myeloma MM.1S, breast cancer MDA-MB-231 and leukemia MV4-11 cell lines as exemples. Using this test method, the IC50 values of partial compounds in the examples of the present invention measured in multiple myeloma MM.1S, breast cancer MDA-MB-231 cell lines and leukemia MV4-11 cell lines were shown in Table 2.

[5] = tested on: leukemia MV4-11 cell line; assay: Cell viability (CCK-8), leukemia MV4-11; assay type: cell-based; conditions: Homo sapiens, 96 h; MV4-11 cells, 4 days, CCK-8, 50% inhibition of cell growth
Description: as §1, §2, §3, §4, §5, §6, §7

Q: For COc1ccc2c(c1)C(Nc1ccc(C#N)cc1)CCc1onc(C)c1-2 (centres unmarked) [FA06, 4-(8-methoxy-1-methyl-5,6-dihydro-4H-benzo[6,7]cyclohepta[1,2-d]isoxazol-6-yl)aminobenzonitrile], which Ki [1] is on record?
A: The Ki was 0.0831 µM.

Q: And the Ki [2]?
A: Its Ki is 0.0559 µM.

Q: What about the IC50 [3] of the same molecule?
A: The IC50 was 0.00605 µM.

Q: And the IC50 [4]?
A: Its IC50 is 0.089 µM.

Q: Cc1nnn2c1-c1ccc(-c3cn(C)nn3)cc1C(Nc1ccc(Cl)cc1)CC2 (centres unmarked) [RB48, N-(4-chlorophenyl)-1-methyl-9-(1-methyl-1H-1,2,3-triazol-4-yl)-6,7-dihydro-5H-benzo[c][1,2,3]triazolo[1,5-a]azepin-7-amine] was tested. Which Ki [1] did it give?
A: The Ki was 0.0451 µM.

Q: And the Ki [2]?
A: The Ki was 0.0165 µM.

Q: And the IC50 [3]?
A: The IC50 was 0.0025 µM.

Q: What about the IC50 [4] of the same molecule?
A: Its IC50 is 0.065 µM.

Q: For Cc1nnn2c1-c1ccc(-c3cnc4[nH]cnc4c3)cc1C(Nc1ccc(Cl)cc1)CC2 (centres unmarked) [RB43, N-(4-chlorophenyl)-9-(3H-imidazo[4,5-b]pyridin-6-yl)-1-methyl-6,7-dihydro-5H-benzo[c][1,2,3]triazolo[1,5-a]azepin-7-amine], which Ki [1] is on record?
A: The Ki was 0.0458 µM.

Q: What about the Ki [2] of the same molecule?
A: Its Ki is 0.014 µM.

Q: And the IC50 [3]?
A: Its IC50 is 0.0011 µM.

Q: And the IC50 [4]?
A: The IC50 was 0.105 µM.

Q: Cc1nnn2c1-c1ccc(-c3cnn(C)c3)cc1C(Nc1ccc(Cl)cc1)CC2 (centres unmarked) [RA180, N-(4-chlorophenyl)-1-methyl-9-(1-methyl-1H-pyrazol-4-yl)-6,7-dihydro-5H-benzo[c][1,2,3]triazolo[1,5-a]azepin-7-amine] was tested. Which Ki [1] did it give?
A: The Ki was 0.0337 µM.

Q: And the Ki [2]?
A: The Ki was 0.0076 µM.

Q: And the IC50 [3]?
A: Its IC50 is 0.00234 µM.

Q: What about the IC50 [4] of the same molecule?
A: The IC50 was 0.011 µM.

Q: For Cc1nnn2c1-c1ccc(-c3cnn(C)c3)cc1C(Nc1ccccc1N(C)C)CC2 (centres unmarked) [LB01, N^1,N^1-dimethyl-N^2-(1-methyl-9-(1-methyl-1H-pyrazol-4-yl)-6,7-dihydro-5H-benzo[c][1,2,3]triazolo[1,5-a]azepin-7-yl)benzene-1,2-diamine], which Ki [1] is on record?
A: Its Ki is 0.0948 µM.

Q: And the Ki [2]?
A: The Ki was 0.0269 µM.

Q: And the IC50 [3]?
A: Its IC50 is 0.00428 µM.

Q: And the IC50 [4]?
A: Its IC50 is 0.45 µM.

Q: Which Ki [1] does the source give for CCn1cc(-c2ccc3c(c2)C(Nc2ccc(Cl)cc2)CCn2nnc(C)c2-3)cn1 (centres unmarked) [RB05, N-(4-chlorophenyl)-9-(1-ethyl-1H-pyrazol-4-yl)-1-methyl-6,7-dihydro-5H-benzo[c][1,2,3]triazolo[1,5-a]azepin-7-amine] here?
A: Its Ki is 0.0232 µM.

Q: And the Ki [2]?
A: Its Ki is 0.00573 µM.

Q: What about the IC50 [3] of the same molecule?
A: The IC50 was 0.00232 µM.

Q: What about the IC50 [4] of the same molecule?
A: Its IC50 is 0.001 µM.

Q: What about the IC50 [5] of the same molecule?
A: The IC50 was less than 0.0001 µM.

Q: Which Ki [1] does the source give for Cc1nnn2c1-c1ccc(C3=CCN(C(C)C)CC3)cc1C(Nc1ccc(Cl)cc1)CC2 (centres unmarked) [LD24, N-(4-chlorophenyl)-9-(1-isopropyl-1,2,3,6-tetrahydropyridin-4-yl)-1-methyl-6,7-dihydro-5H-benzo[c][1,2,3]triazolo[1,5-a]azepin-7-amine 2,2,2-trifluoroacetate] here?
A: Its Ki is 0.293 µM.

Q: What about the Ki [2] of the same molecule?
A: Its Ki is 0.0216 µM.

Q: And the IC50 [3]?
A: Its IC50 is 0.447 µM.

Q: What about the IC50 [5] of the same molecule?
A: Its IC50 is 0.019 µM.

Q: Which results are given for Cc1nnn2c1-c1ccc(C3=CCN(C4CCCC4)CC3)cc1C(Nc1cc(Cl)ccc1F)CC2 (centres unmarked) [BH190, N-(5-chloro-2-fluorophenyl)-9-(1-cyclopentyl-1,2,3,6-tetrahydropyridin-4-yl)-1-methyl-6,7-dihydro-5H-benzo[c][1,2,3]triazolo[1,5-a]azepin-7-amine 2,2,2-trifluoroacetate]?
A: Ki [1]: 1.62 µM; Ki [2]: 0.0129 µM and 0.0279 µM; IC50 [3]: 0.248 µM; IC50 [5]: 0.0628 µM

Q: CNC(=O)Cc1ccccc1NC1CCn2nnc(C)c2-c2ccc(-c3cnn(C)c3)cc21 (centres unmarked) [LC11, N-methyl-2-(2-((1-methyl-9-(1-methyl-1H-pyrazol-4-yl)-6,7-dihydro-5H-benzo[c][1,2,3]triazolo[1,5-a]azepin-7-yl)amino)phenyl)acetamide] was tested. Which Ki [1] did it give?
A: Its Ki is 0.0078 µM.

Q: What about the “BRD4 BD2 Ki” value [2] of the same molecule?
A: Its value is “<Kd”.

Q: What about the IC50 [3] of the same molecule?
A: The IC50 was 0.0252 µM.

Q: And the IC50 [5]?
A: The IC50 was 0.0154 µM.

Q: Which Ki [1] does the source give for COC(=O)c1ccc(NC2CCn3nnc(C)c3-c3ccc(-c4cnn(C)c4)cc32)cc1 (centres unmarked) [LB37, methyl 4-((1-methyl-9-(1-methyl-1H-pyrazol-4-yl)-6,7-dihydro-5H-benzo[c][1,2,3]triazolo[1,5-a]azepin-7-yl)amino)benzoate] here?
A: Its Ki is 0.045 µM.

Q: And the Ki [2]?
A: The Ki was 0.0109 µM.

Q: And the IC50 [3]?
A: The IC50 was 0.00203 µM.

Q: What about the IC50 [4] of the same molecule?
A: The IC50 was 0.043 µM.
